Read-outs that look alike come from different tables or passages of the source.
Experiments:
ERBB4/HER4 = molecular target: T1, ERBB4/HER4 (Homo sapiens, UniProt Q15303); test: Kinase inhibition assay (HotSpot), ERBB4/HER4; format: biochemical; conditions: 10 μM ATP, 10-dose IC50 mode; read-out: Compound IC50 (M) ERBB4/HER4
T1 construct: purchased Reaction Biology Corp

MINK/MINK1 = molecular target: T2, MINK/MINK1 (Homo sapiens, UniProt Q8N4C8); test: Kinase inhibition assay (HotSpot), MINK/MINK1; format: biochemical; conditions: 10 μM ATP, 10-dose IC50 mode; read-out: Compound IC50 (M) MINK/MINK1
T2 construct: purchased Reaction Biology Corp
T2 sequence (Q8N4C8 whole entry): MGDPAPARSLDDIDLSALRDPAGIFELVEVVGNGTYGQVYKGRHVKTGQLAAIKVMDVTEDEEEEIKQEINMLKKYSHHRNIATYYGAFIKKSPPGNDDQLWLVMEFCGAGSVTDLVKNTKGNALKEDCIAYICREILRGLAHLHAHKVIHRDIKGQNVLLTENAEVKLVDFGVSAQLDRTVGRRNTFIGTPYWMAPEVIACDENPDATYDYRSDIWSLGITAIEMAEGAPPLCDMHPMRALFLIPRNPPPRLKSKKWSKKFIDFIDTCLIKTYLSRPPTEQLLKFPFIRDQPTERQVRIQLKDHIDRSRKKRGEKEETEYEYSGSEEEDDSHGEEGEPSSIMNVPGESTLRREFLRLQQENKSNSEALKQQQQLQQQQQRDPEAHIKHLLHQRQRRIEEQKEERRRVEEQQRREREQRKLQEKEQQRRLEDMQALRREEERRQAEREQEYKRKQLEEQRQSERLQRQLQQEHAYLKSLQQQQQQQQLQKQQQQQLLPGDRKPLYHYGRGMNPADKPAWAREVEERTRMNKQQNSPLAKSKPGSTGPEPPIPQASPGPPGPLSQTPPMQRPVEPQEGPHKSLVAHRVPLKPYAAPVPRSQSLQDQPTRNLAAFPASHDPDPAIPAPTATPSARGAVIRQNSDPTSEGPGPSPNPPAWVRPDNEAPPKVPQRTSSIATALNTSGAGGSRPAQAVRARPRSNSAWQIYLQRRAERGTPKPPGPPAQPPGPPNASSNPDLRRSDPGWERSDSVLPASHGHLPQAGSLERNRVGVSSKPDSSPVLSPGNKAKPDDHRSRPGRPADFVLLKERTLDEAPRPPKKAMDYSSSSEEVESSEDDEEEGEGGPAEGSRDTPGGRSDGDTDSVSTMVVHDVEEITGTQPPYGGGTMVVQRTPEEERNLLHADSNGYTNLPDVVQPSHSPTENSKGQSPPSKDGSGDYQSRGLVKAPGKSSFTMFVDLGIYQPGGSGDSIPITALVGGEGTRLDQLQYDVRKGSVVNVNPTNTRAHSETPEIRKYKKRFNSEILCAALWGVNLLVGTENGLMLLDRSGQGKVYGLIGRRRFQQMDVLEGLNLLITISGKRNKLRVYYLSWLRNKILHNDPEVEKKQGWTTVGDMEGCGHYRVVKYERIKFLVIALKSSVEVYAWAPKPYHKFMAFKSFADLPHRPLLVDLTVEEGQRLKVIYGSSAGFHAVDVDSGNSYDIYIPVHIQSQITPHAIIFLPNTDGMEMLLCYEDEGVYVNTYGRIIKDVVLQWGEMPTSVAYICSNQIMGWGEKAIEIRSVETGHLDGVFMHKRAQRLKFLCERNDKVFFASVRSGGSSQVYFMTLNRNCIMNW

[1] = molecular target: T3, human recombinant Casein kinase 18 (CK1δ) (Homo sapiens, UniProt P48730); test: Kinase inhibition assay (HotSpot, Reaction Biology Corp), CK1δ; format: biochemical; conditions: 10 μM ATP, 10-dose IC50 mode
T3 construct: purchased Reaction Biology Corp
T3 sequence (P48730 whole entry): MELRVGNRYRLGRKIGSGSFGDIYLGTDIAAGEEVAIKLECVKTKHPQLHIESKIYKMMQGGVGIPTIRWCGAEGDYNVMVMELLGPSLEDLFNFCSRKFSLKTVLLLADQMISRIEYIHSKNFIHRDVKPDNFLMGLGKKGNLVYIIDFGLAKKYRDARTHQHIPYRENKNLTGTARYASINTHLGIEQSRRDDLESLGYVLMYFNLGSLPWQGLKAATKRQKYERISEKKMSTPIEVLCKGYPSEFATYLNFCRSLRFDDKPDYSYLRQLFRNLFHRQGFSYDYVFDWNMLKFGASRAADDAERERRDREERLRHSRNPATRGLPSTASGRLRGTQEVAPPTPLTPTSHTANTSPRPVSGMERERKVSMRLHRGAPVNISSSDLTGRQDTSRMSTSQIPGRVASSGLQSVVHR

[2] = system: interleukin-1α (IL1α)-mediated cytokine production by the lung adenocarcinoma cell line A549; test: Cellular assay (A549) against IL1α-mediated cytokine production; format: cell-based, human; conditions: serum starved A549 cells, compound 30 min prior to IL-1α (1 ng/ml) for 24 h, ELISA
Procedure: Cellular Assay (A549 Human Lung Adenocarcinoma Cells) Assessing Effect of ZH3-138, ZH3-126 and PF670462 Against IL1α-Mediated Cytokine Production
The anti-inflammatory potential of selected compounds was examined by establishing the effects on interleukin-1α (IL1α)-mediated cytokine production by the lung adenocarcinoma cell line A549. Serum starved A549 cells were treated with various concentrations of the relevant CK1δ inhibitor (PF670462, ZH3-126 and ZH3-138) 30 min prior to IL-1α (1 ng/ml) for 24 h. Supernatant was collected and concentration of IL-6, IL-8 and GM-CSF was detected by ELISA. Data are presented as mean±SEM across three replicates in FIG. 7 (A: IL-6; B: IL-8 and C: GM-CSF).

[3] = system: TGF-β-induced IL-11 in primary human parenchymal fibroblast cells (pFbs); test: Human parenchymal fibroblast cell assay, TGF-β-induced IL-11 (ELISA); format: cell-based; conditions: compounds 0.1-10 μM 30 min prior to TGF-β1, 16-24 hours, 4.00* is assigned to compounds that failed to cause 50% or more inhibition at 10 µM, read-out: pIC50 IL-11 suppression (converted)
Procedure: Human Parenchymal Fibroblast Cell Assay
Primary human parenchymal fibroblast cells (pFbs) were cultured from parenchyma of lung resection specimens and from non-transplanted lungs of donors without chronic respiratory disease. pFbs were passaged in Dulbecco's Modified Eagle's Media (DMEM) containing 10% (v/v) heat-inactivated fetal calf serum (FCS), 15 mM HEPES, 0.2% (v/v) sodium bicarbonate, 2 mM L-glutamine, 1% (v/v) non-essential amino acids, 1% (v/v) sodium pyruvate, 2.5 μg/mL amphotericin, 5 IU/mL penicillin and 50 μg/mL streptomycin. In some experiments the human lung fibroblast cell line, MRC5 (sourced from ATTC) was used as indicated. The MRC5 line was maintained under the same conditions as described for the pFb.
Prior to experimentation, pFb were incubated in serum-free DMEM containing 0.25% bovine serum albumin (BSA) and insulin-transferrin-selenium-containing supplement (Monomed A; CSL, Parkville, Melbourne, Australia). The cells were incubated with small molecular CK1δ inhibitors (0.1-10 μM) for 30 min prior to […] TGF-β1 (R&D Systems, Minneapolis, Minn.) and the incubation continued for 16-24 hours prior to harvest of supernatant for detection of immunoreactive IL-11. Stock solutions were made as 10 mM in 100% DMSO and diluted to the required concentration in medium containing 0.1% DMSO (final concentration).
Supernatants were collected for measurement of IL-11 (R&D DuoSet, DY218) by ELISA following the manufacturers' instructions. Generally, capture antibodies were initially diluted to the recommended concentrations using PBS buffer, and then used to coat the wells of 96-well microplates (Greiner, #655061) by adding 50 μL/well and incubated overnight at room temperature. Next day, solutions were discarded and wells were washed 3 times with wash buffer (PBS containing 0.1% (v/v) Tween-20) prior to the addition of 200 μL of blocking solution (PBS containing 1% (v/v) BSA) for 1 hour to block non-specific sites. Plates were then washed 3 times with wash buffer and 50 μL of samples or standards were then added to wells and incubated for 2 hours at room temperature. After the incubation, plates were washed 3 times with wash buffer and 50 μL of detection antibodies were added to wells and incubated for 2 hours at room temperature. Plates were then washed 3 times before adding streptavidin-conjugated horseradish peroxidase (at the recommended concentrations) for 45 min. Plates were then washed 5 times with wash buffer and 100 μL TMB substrate solution (equal parts A and B, BD Biosciences) was added to each well until sufficient signals emerged. The reactions were inactivated by adding 100 μL sulphuric acid (2M H2SO4). The absorbance was measured at 450 nm using the Multiskan Ascent® plate reader. The absorbance of the cytokine standards was fitted to a logistic equation, allowing the concentrations of cytokine in samples to be determined.
PIC50 values (the negative log of the concentration suppressing IL-11 level by 50%) for inhibition of TGF-β-induced IL-11 were interpolated from the linear regression of log concentration small molecule versus IL-11 level (Table 4 and FIG. 2).

[4] = In vitro metabolic stability, human liver microsomes; format: in vitro ADME
Procedure: Human Microsomal Stability of Compounds of the Invention
In Vitro Metabolic Stability
Incubation: The metabolic stability assay was performed by incubating each test compound in human liver microsomes at 37° C. and a protein concentration of 0.4 mg/mL. The metabolic reaction was initiated by the addition of an NADPH-regenerating system and quenched at various time points over a 60 minute incubation period by the addition of acetonitrile containing diazepam as internal standard. Control samples (containing no NADPH) were included (and quenched at 2, 30 and 60 minutes) to monitor for potential degradation in the absence of cofactor. The human liver microsomes used in this experiment were supplied by XenoTech, lot #1410230. Microsomal incubations were performed at a substrate concentration of 1 μM. Data analysis: Species scaling factors from Ring et al. (2011) JPharmSci, 100:4090-4110 were used to convert the in vitro CLint (μL/min/mg) to an in vivo CLint(mL/min/kg). Hepatic blood clearance and the corresponding hepatic extraction ratio (EH) were calculated using the well stirred model of hepatic extraction in each species, according to the “in vitro T1/2” approach described in Obach (1999) DrugMetab. Dispos. 27:1350-1359. The EH was then used to classify compounds as low(<0.3), intermediate (0.3-0.7), high (0.7-0.95) or very high (>0.95) extraction compounds. Predicted in vivo clearance values have not been corrected for microsomal or plasma protein binding. Species scaling calculations are based on two assumptions: 1) NADPH-dependent oxidative metabolism predominates over other metabolic routes (i.e. direct conjugative metabolism, reduction, hydrolysis, etc.), and; 2) rates of metabolism and enzyme activities in vitro are truly reflective of those that exist in vivo. If significant non-NADPH-mediated degradation is observed in microsome control samples, then assumption (1) is invalid and predicted clearance parameters are therefore not reported.

T1 sequence (Q15303 26-1308): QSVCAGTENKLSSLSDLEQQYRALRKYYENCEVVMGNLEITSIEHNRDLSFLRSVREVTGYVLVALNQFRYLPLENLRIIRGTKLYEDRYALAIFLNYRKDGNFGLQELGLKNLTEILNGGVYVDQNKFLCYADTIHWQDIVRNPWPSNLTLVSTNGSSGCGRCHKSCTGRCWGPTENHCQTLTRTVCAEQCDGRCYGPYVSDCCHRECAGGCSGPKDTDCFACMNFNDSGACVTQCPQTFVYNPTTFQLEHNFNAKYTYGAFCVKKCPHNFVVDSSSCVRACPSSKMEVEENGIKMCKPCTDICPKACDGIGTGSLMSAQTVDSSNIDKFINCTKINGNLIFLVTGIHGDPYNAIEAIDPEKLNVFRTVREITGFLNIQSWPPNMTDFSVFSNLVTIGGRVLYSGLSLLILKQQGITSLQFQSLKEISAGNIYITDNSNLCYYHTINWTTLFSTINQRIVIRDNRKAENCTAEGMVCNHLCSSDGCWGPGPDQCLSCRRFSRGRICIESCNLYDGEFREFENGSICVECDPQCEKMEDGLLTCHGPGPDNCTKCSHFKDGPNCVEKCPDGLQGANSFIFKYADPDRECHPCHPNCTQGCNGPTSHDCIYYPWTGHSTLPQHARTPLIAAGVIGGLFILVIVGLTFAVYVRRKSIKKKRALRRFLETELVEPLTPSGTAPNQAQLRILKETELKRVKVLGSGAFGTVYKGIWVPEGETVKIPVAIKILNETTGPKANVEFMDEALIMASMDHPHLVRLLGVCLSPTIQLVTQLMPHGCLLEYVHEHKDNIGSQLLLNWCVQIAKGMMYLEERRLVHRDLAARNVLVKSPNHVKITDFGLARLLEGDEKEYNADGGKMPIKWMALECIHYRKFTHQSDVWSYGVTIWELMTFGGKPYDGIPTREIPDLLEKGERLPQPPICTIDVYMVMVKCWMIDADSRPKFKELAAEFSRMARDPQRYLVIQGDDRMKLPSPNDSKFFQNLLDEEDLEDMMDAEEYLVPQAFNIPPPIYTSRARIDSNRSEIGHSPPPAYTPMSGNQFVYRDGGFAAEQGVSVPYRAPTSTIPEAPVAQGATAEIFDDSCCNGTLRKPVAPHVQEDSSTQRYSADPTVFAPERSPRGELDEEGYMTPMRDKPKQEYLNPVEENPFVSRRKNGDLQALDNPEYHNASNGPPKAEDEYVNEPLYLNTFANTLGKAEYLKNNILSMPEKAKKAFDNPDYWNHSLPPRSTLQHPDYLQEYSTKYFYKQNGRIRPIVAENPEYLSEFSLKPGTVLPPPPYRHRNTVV

IC50 (ERBB4/HER4): 9.52e-06 M
IC50 (MINK/MINK1): 1.99e-07 M
IC50 ([1]; read-out: Compound IC50 (M) CK1δ): 6.38e-10 M
IC50 ([1]; casein kinase 1δ, read-out: pIC50 (converted)): 6.46e-10 M
Predicted EH (hepatic extraction ratio) ([4]; human liver microsomes): 0.22
microsomal CLint at 1 μM ([4]; human liver microsomes, 1 μM): 7 µL/min/mg
half-life at 1 μM ([4]; human liver microsomes, 1 μM, 0.4 mg/mL protein, 37° C.): 4.03 h
Predicted CLblood ([4]; scaled from human liver microsomes, well stirred model): 5 mL/min/kg
CLint scaled at 1 μM ([4]; scaled from human liver microsomes, read-out: Predicted CLint, in vivo): 6 mL/min/kg
SMILES: CCn1cnc(-c2ccc(F)cc2)c1-c1ccnc(NCCO)n1 [ZH3-126, 2-((4-(1-Ethyl-4-(4-fluorophenyl)-1H-imidazol-5-yl)pyrimidin-2-yl)amino)ethan-1-ol]
supernatant concentrations of inflammatory biomarkers (IL-6, IL-8, GM-CSF) [2]: ability to reduce supernatant concentrations of other inflammatory biomarkers
IC50 [3]: 1860 nM

— US20220281846A1, “COMPOUNDS AND COMPOSITIONS FOR THE TREATMENT OF RESPIRATORY DISEASES” (THE UNIVERSITY OF MELBOURNE, priority 2018, published 2022)
